Reference: patent US8044052B2, “Biaryl ether urea compounds” (Pfizer Inc., priority 2006, dated 2011)
Counter-ions that a name gives are not always drawn.

Molecular target: T1, Human FAAH (Homo sapiens, UniProt O00519)
T1 construct: made in house
T1 sequence (O00519 1-579): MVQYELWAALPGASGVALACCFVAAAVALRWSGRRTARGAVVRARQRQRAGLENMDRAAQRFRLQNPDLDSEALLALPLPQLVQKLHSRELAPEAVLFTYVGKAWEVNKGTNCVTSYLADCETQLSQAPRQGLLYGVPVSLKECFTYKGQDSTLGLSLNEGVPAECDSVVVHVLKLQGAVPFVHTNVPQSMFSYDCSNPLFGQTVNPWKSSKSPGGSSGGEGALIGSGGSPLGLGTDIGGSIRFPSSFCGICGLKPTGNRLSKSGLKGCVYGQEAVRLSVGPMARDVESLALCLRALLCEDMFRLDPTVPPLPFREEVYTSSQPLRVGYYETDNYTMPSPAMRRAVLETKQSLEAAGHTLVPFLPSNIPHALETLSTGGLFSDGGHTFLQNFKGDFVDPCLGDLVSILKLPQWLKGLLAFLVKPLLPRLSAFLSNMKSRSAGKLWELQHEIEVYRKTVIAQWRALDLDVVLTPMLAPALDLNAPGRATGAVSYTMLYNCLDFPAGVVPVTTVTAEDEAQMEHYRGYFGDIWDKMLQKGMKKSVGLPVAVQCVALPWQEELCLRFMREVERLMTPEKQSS
Assay: FAAH assay (glutamate dehydrogenase-coupled, oleamide substrate, absorbance at 340 nm)
Format: biochemical
Details: irreversible inhibition, 1-4 nM FAAH, pH 7.4, 30° C., 90 min

SMILES	hFAAH kinact/Ki [M⁻¹ s⁻¹]
O=C(Nc1cccnc1)N1CCC(=Cc2cccc(Oc3ccc(OCC(F)(F)F)cc3)c2)CC1 [Example 99, N-pyridin-{3-yl-4-3-[4-(2,2,2-trifluoroethoxy)phenoxy]benzylidene}piperidine-1-carboxamide]	1130

Same assay, conditions: irreversible inhibition, 1-4 nM FAAH, pH 7.4, 30° C., 90 min, read-out: hFAAH kinact/Ki

kinact/KI [M⁻¹ s⁻¹]	SMILES
4590	Cc1ccc(NC(=O)N2CCC(=C(F)c3cccc(Oc4ccc(C(F)(F)F)cn4)c3)CC2)cn1 [Example 70, 4-(fluoro(3-(5-(trifluoromethyl)pyridin-2-yloxy)phenyl)methylene)-N-(6-methylpyridin-3-yl)piperidine-1-carboxamide]
306	Cc1cc(NC(=O)N2CCC(=Cc3cccc(Oc4ccc(C(F)(F)F)cn4)c3)CC2)n[nH]1 [Example 139, N-(5-methyl-1H-pyrazol-3-yl)-4-(3-{[5-(trifluoromethyl)pyridin-2-yl]oxy}benzylidene)piperidine-1-carboxamide]
3540	N#Cc1ccc(Oc2cccc(C=C3CCN(C(=O)Nc4cccnc4)CC3)c2)nc1 [Example 30, 4-(3-(5-cyanopyridin-2-yloxy)benzylidene)-N-(pyridin-3-yl)piperidine-1-carboxamide]
26300	O=C(Nc1cccnc1)N1CCC(=Cc2cccc(Oc3ccc(Br)cn3)c2)CC1 [Example 33, 4-{3-[(5-bromopyridin-2-yl)oxy]benzylidene}-N-pyridin-3-ylpiperidine-1-carboxamide]
4490	CCOc1ccc(Oc2cccc(C=C3CCN(C(=O)Nc4cccnc4)CC3)c2)nc1 [Example 47, 4-(3-(5-ethoxypyridin-2-yloxy)benzylidene)-N-(pyridin-3-yl)piperidine-1-carboxamide]
24700	O=C(Nc1cccnn1)N1CCC(=Cc2cccc(Oc3ccc(C(F)(F)F)cn3)c2)CC1 [Example 5, N-pyridazin-3-yl-4-(3-{[5-(trifluoromethyl)pyridin-2-yl]oxy}benzylidene)piperidine-1-carboxamide]
1010	CCn1ncnc1NC(=O)N1CCC(=Cc2cccc(Oc3ccc(C(F)(F)F)cn3)c2)CC1 [Example 81, N-(1-ethyl-1H-1,2,4-triazol-5-yl)-4-(3-{[5-(trifluoromethyl)pyridin-2-yl]oxy}benzylidene)piperidine-1-carboxamide trifluoroacetate]
353	CCc1cc(NC(=O)N2CCC(=Cc3cccc(Oc4ccc(C(F)(F)F)cn4)c3)CC2)[nH]n1 [Example 80, N-(3-ethyl-1H-pyrazol-5-yl)-4-(3-{[5-(trifluoromethyl)pyridin-2-yl]oxy}benzylidene)piperidine-1-carboxamide trifluoroacetate]
412	O=C(Nc1cc(O)[nH]n1)N1CCC(=Cc2cccc(Oc3ccc(C(F)(F)F)cn3)c2)CC1 [Example 143, N-(5-hydroxy-1H-pyrazol-3-yl)-4-(3-{[5-(trifluoromethyl)pyridin-2-yl]oxy}benzylidene)piperidine-1-carboxamide]
4300	O=C(Nc1cn[nH]c1)N1CCC(=Cc2cccc(Oc3ccc(C(F)(F)F)cn3)c2)CC1 [Example 138, N-1H-pyrazol-4-yl-4-(3-{[5-(trifluoromethyl)pyridin-2-yl]oxy}benzylidene)piperidine-1-carboxamide]
< 10	Cc1nn(C)c(C)c1NC(=O)N1CCC(=Cc2cccc(Oc3ccc(C(F)(F)F)cn3)c2)CC1 [Example 134, 4-(3-{[5-(trifluoromethyl)pyridin-2-yl]oxy}benzylidene)-N-(1,3,5-trimethyl-1H-pyrazol-4-yl)piperidine-1-carboxamide]
2300	O=C(Nc1cccnc1)N1CCC(=C(F)c2cccc(Oc3ccc(C(F)(F)F)cn3)c2)CC1 [Example 69, 4-(fluoro(3-(5-(trifluoromethyl)pyridin-2-yloxy)phenyl)methylene)-N-(pyridin-3-yl)piperidine-1-carboxamide]
3190	O=C(Nc1ccc2nn[nH]c2c1)N1CCC(=Cc2cccc(Oc3ccc(C(F)(F)F)cn3)c2)CC1 [Example 14, N-1H-1,2,3-benzotriazol-6-yl-4-(3-{[5-(trifluoromethyl)pyridin-2-yl]oxy}benzylidene)piperidine-1-carboxamide]
2100	Cn1ncc(NC(=O)N2CCC(=Cc3cccc(Oc4ccc(C(F)(F)F)cn4)c3)CC2)n1 [Example 78, N-(2-methyl-2H-1,2,3-triazol-4-yl)-4-(3-{[5-(trifluoromethyl)pyridin-2-yl]oxy}benzylidene)piperidine-1-carboxamide]

Further lines, the molecule ahead of its results:

SMILES	kinact/KI [M⁻¹ s⁻¹]
Cc1cccnc1Oc1cccc(C=C2CCN(C(=O)Nc3cccnn3)CC2)c1 [Example 43, 4-(3-(3-methylpyridin-2-yloxy)benzylidene)-N-(pyridazin-3-yl)piperidine-1-carboxamide]	1410
Cc1ccnc(Oc2cccc(C=C3CCN(C(=O)Nc4cccnn4)CC3)c2)c1 [Example 73, 4-{3-[(4-methylpyridin-2-yl)oxy]benzylidene}-N-pyridazin-3-ylpiperidine-1-carboxamide]	963
O=C(Nc1cccnn1)N1CCC(=Cc2cccc(Oc3ncc(-c4cccc(Cl)c4)cn3)c2)CC1 [Example 110, 4-(3-{[5-(3-chlorophenyl)pyrimidin-2-yl]oxy}benzylidene)-N-pyridazin-3-ylpiperidine-1-carboxamide]	1020
O=C(Nc1onc2ccccc12)N1CCC(=Cc2cccc(Oc3ccc(F)cc3)c2)CC1 [Example 18, N-2,1-benzisoxazol-3-yl-4-[3-(4-fluorophenoxy)benzylidene]piperidine-1-carboxamide]	2730
O=C(Nc1cccnn1)N1CCC(=Cc2cccc(Oc3cnccn3)c2)CC1 [Example 123, 4-[3-(pyrazin-2-yloxy)benzylidene]-N-pyridazin-3-ylpiperidine-1-carboxamide]	203
CC(C)Oc1ccc(Oc2cccc(C=C3CCN(C(=O)Nc4cccnc4)CC3)c2)nc1 [Example 51, 4-(3-(5-isopropoxypyridin-2-yloxy)benzylidene)-N-(pyridin-3-yl)piperidine-1-carboxamide]	4330
O=C(Nc1cccnn1)N1CCC(=Cc2cccc(Oc3ccc(N4CCCC4)cn3)c2)CC1 [Example 85, 4-(3-(5-(pyrrolidin-1-yl)pyridin-2-yloxy)benzylidene)-N-(pyridazin-3-yl)piperidine-1-carboxamide]	1540
O=C(Nc1cccnc1)N1CCC(=Cc2cccc(OCc3ccccc3)c2)CC1 [Example 17, 4-[3-(benzyloxy)benzylidene]-N-pyridin-3-ylpiperidine-1-carboxamide]	1620
COc1cc(Oc2cccc(C=C3CCN(C(=O)Nc4cccnn4)CC3)c2)ncn1 [Example 121, 4-{3-[(6-methoxypyrimidin-4-yl)oxy]benzylidene}-N-pyridazin-3-ylpiperidine-1-carboxamide]	896
O=C(Nc1cccnn1)N1CCC(=Cc2cccc(Oc3nccc(C(F)(F)F)n3)c2)CC1 [Example 113, N-pyridazin-3-yl-4-(3-{[4-(trifluoromethyl)pyrimidin-2-yl]oxy}benzylidene)piperidine-1-carboxamide]	584

System: not given
Assay: not given
Details: not given

melting point [°C]	SMILES
158 to 160	Cc1ccc(NC(=O)N2CCC(=C(F)c3cccc(Oc4ccc(C(F)(F)F)cn4)c3)CC2)cn1 [Example 70, 4-(fluoro(3-(5-(trifluoromethyl)pyridin-2-yloxy)phenyl)methylene)-N-(6-methylpyridin-3-yl)piperidine-1-carboxamide]
